Assay results taken from article PMC6110523 (Biochemistry, 2018).

Biological target: HER2 (Homo sapiens, UniProt P04626)
Test: DiscoverX scanELECT competition binding at […]

Chain of HER2 (P04626 720-987 limits assumed): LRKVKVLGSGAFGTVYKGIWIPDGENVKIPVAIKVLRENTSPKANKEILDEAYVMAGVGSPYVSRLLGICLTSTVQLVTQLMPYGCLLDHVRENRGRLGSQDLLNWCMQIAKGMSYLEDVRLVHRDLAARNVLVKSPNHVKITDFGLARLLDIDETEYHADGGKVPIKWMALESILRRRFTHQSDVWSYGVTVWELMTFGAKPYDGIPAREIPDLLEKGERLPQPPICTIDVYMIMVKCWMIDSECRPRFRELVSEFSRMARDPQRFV

% control at 1 μM: 0
Structure (SMILES): CS(=O)(=O)CCNCc1ccc(-c2ccc3ncnc(Nc4ccc(OCc5cccc(F)c5)c(Cl)c4)c3c2)o1 [lapatinib]
